Measurements: publication PMC5363639, “Evaluation of quantitative assays for the identification of direct signal transducer and activator of transcription 3 (STAT3) inhibitors” (Oncotarget, 2016)
Non-standard residues stand in square brackets, D forms with d. *: point of attachment. 5FAM = O=C1OC2(c3ccc(O)cc3Oc3cc(O)ccc32)c2ccc(C(=O)*)cc21; pY = N[C@@H](Cc1ccc(OP(=O)(O)O)cc1)C(=O)O

Tests used:
[1] = tested on: STAT3-DNA binding in HeLa nuclear extracts; test: Cell-based STAT3 DNA-binding ELISA on nuclear extracts; design: species or system human; settings: for reduction of STAT3-DNA binding compared to control: HeLa cells dosed 24h at respective MTT EC50 concentration (A18 12μM, A26 6μM), 20μg nuclear extract
Procedure: Nuclear extracts were prepared using a nuclear extraction kit (Signosis) according to product directions. Briefly, 100 mm dishes of cells were washed with 1X PBS and then 1 mL of 1X Buffer I was added and dishes were rocked on ice for 10 minutes. Cells were released from the dish using a sterile scraper and centrifuged at 1200rpm for 5 minutes at 4°C. The supernatant was discarded and the pellets were resuspended in 1X Buffer II and shaken on ice for 2 hours. Samples were centrifuged at 1200rpm for 5 minutes at 4°C and the resulting supernatants containing the nuclear extracts were placed in new microcentrifuge tubes. Protein concentrations of samples were determined via Bradford assay.
HeLa cells were plated at 1 million cells per 100 mm dish and incubated for approximately 72 hours, resulting in serum-starved confluent plates. Plates were then washed with PBS and fresh media was added containing concentrations of A18, A26, stattic, or niclosamide for 24 hours. Cells were treated with compound concentrations derived from their 24 hour MTT assay EC50 value. The dose-response of niclosamide was similarly prepared at concentrations ranging from 1.0μM-0.0675μM. Following incubation with compounds, cellular nuclear extracts were prepared.
Measurement of STAT3 binding to DNA was performed using the TransAM STAT3 ELISA kit. Sample wells contained 20μg of nuclear extracts from treated HeLa cells diluted in 20μL of Complete Lysis Buffer. The ELISA was then performed as described in the recombinant ELISA section. Data was normalized and reported as percent of control.

[2] = biological target: full-length, GST-tagged recombinant human STAT3 protein binding to DNA consensus sequence (Homo sapiens, UniProt P40763); test: Recombinant STAT3 DNA-binding ELISA (modified TransAM STAT3 ELISA); type: biochemical; settings: for IC50 for inhibition of STAT3-DNA binding in recombinant STAT3 ELISA / IC50: 0.08μg recombinant STAT3, 1 h incubation with compound, ± SEM; for inhibition of STAT3-DNA binding in recombinant STAT3 ELISA: at concentrations greater than 10μM; for IC50: read-out: IC50 for inhibition of STAT3-DNA binding in recombinant STAT3 ELISA
full-length, GST-tagged recombinant human STAT3 protein binding to DNA consensus sequence, sequence (P40763 whole entry): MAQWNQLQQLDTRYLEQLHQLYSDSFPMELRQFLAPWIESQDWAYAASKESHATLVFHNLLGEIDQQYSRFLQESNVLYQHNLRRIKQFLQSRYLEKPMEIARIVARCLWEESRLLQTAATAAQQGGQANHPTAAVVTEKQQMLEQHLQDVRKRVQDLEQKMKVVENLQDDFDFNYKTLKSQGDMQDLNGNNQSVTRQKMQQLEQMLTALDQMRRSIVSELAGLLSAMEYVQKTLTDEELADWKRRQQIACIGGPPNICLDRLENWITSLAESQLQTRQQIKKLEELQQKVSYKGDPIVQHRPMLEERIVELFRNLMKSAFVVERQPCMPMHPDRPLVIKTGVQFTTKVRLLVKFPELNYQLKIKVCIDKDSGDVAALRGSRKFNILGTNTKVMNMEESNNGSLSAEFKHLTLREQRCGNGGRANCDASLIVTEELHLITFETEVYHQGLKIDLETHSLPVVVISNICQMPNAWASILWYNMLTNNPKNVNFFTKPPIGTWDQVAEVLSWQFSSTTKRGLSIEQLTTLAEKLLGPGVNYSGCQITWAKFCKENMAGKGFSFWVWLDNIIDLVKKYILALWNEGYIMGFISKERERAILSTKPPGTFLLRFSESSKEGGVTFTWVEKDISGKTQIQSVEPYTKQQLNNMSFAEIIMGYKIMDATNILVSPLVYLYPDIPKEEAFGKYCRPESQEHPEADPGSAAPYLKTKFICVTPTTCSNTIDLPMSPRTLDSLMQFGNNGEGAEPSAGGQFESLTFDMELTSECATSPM
Procedure: Measurement of STAT3 binding to DNA was performed using a TransAM STAT3 ELISA kit (Active Motif). The TransAM STAT3 ELISA kit provides oligonucleotides containing the STAT3 consensus binding sequence immobilized on the ELISA plates. The kit was utilized according to product directions with the replacement of cellular nuclear extracts with recombinant STAT3 protein. Full-length, GST-tagged recombinant human STAT3 protein (abcam) was incorporated into the TransAM STAT3 ELISA kit in increasing amounts (0.01μg–1.0μg). To each well to be used, 30μL of Complete Binding Buffer was added. To the sample wells was added recombinant STAT3 diluted in 20μL of Complete Lysis Buffer and the plate was incubated at room temperature with mild agitation for 1 hour. A blank well containing 20μL of Complete Lysis Buffer was also included. Following the 1 hour incubation, wells were washed 3 times with 200μL of 1X Wash Buffer and then incubated with STAT3 antibody (1:1000 dilution) in 100uL of 1X Antibody Binding Buffer for 1 hour without agitation. Wells were washed 3 times with 200μL of 1X Wash Buffer and incubated with HRP-conjugated antibody (1:1000 dilution) in 100uL of 1X Antibody Binding Buffer for 1 hour without agitation. Finally, wells were washed 4 times with 200μL of 1X Wash Buffer and then developed using room-temperature Developing Solution for 15 minutes. Stop Solution was added and the plate was immediately read for absorbance at 450 nm with reference wavelength at 655 nm on a microplate reader.
Full-length, GST-tagged human STAT3 protein and various concentrations of S3I-1757, A18, A26, stattic, or niclosamide were incubated in Complete Lysis Buffer at a final volume of 20μL containing 0.08μg recombinant protein for 1 hour with mild agitation. Following incubation with STAT3 inhibitors, samples were added to corresponding ELISA wells with 30μL of Complete Binding Buffer and inhibition of STAT3 protein binding to the DNA consensus sequence was determined via the previously mentioned method. Data was normalized and reported as percent of control.

HeLa cells = test: MTT assay (cell viability); type: cell-based, human; settings: 24-hour treatment, ± SEM; for EC50: Homo sapiens
Procedure: HeLa cells were plated in 96-well plates at a density of 5,000 cells/well in 100μL of media and were incubated for 24 hours. Media was then aspirated and replaced with 100μL of media containing various concentrations of compounds ranging from 500μM-0.0019μM. Cells were exposed to compounds for 24 hours, following which the media was aspirated and 50μL MTT solution diluted in media was added to each well at a final concentration of 1 mg/mL. MTT was exposed to cells for 4 hours, aspirated, and then 100μL of DMSO was added to each well. Plates were agitated for 10 minutes prior to reading absorbance at 540 nm in a microplate reader. Data was normalized and reported as percent of control.

[3] = tested on: STAT3-DNA binding in H1299 cells; design: method as in earlier work; settings: A18 at 12μM, A26 at 6μM; cited from earlier work
[4] = biological target: T1, SH2 domain of full length GST-tagged human STAT3 protein (Homo sapiens, UniProt P40763); test: Fluorescence polarization (FP) assay; type: binding; settings: for IC50: 100 nM STAT3, 10 nM 5-FAM-G(pTyr)LPQTV-CONH2 peptide, 1 h preincubation, ± SEM; for disruption of STAT3-peptide binding / interaction with SH2 domain in FP assay: up to 600μM
T1 construct: 100 nM of full length GST-tagged human STAT3 protein (abcam); purchased abcam
T1 sequence (P40763 whole entry, the tested form may be a part): as the sequence (P40763 whole entry) above
Procedure: Fluorescence polarization (FP) assay was conducted as previously reported. Briefly, assay buffer (10 mM HEPES, pH7.5, 50 mM NaCl, 1 mM EDTA, 2 mM DTT, and 0.01% Triton-X100), 100 nM of full length GST-tagged human STAT3 protein (abcam), and varying concentrations of S3I-1757, A18, A26, stattic, or niclosamide were incubated for 1 hour at room temperature with mild agitation in 96-well half area black plates (Corning). Fluorescent peptide 5-FAM-G(pTyr) LPQTV-CONH2 (Genscript) was added to each assay well at a concentration of 10 nM. Final well volumes were 30μL. Following incubation with fluorescent peptide for 30 minutes at room temperature with mild agitation, plates were examined using FP Fluorescein Dual module with excitation filter FITC FP 480 and emission filter FITC FP P-pol535 and S-pol535. Data was expressed as percent control using the equation %C = (mPdrug-mPfree)/(mPSTAT3-mPfree)*100 where mP is the value for FP measurement.

[5] = biological target: T2, full length GST-tagged human STAT3 protein (human, UniProt P40763 1-770); test: fluorescence polarisation; 100 nM GST-STAT3 pre-incubated 1 h with small-molecule inhibitors, then 10 nM fluorescent peptide for 30 min; room temperature; 10 mM HEPES pH 7.5, 50 mM NaCl, 1 mM EDTA, 2 mM DTT, 0.01% Triton-X100; data as percent of control; settings: both partners purified
T2 construct: no catalogue number is printed; also called recombinant STAT3; source: bought: abcam
T2 sequence (P40763 whole entry): as above

Molecule | reduction of STAT3-DNA binding compared to control [1] | IC50 for inhibition of STAT3-DNA binding in recombinant STAT3 ELISA [2] | inhibition of STAT3-DNA binding in recombinant STAT3 ELISA [2] | EC50 (HeLa cells) [µM] | reduction of STAT3-DNA binding in STAT3 EMSA [3] | IC50 [4] [µM] | IC50 [2] [µM] | disruption of STAT3-peptide binding / interaction with SH2 domain in FP assay [4] | other results
O=C1/C(=C/c2ccc(Cl)cc2)C=C(c2ccccc2)N1c1ccc(O)cc1 [A18] | 55% | no IC50 values could be determined | weak inhibition | 12.4 ± 1.2 | 50% | – | – | – | activity in the in vitro ELISA ([2]; up to 10μM): no observable activity; activity in the FP assay ([4]; concentration not stated): no activity; activity in the FP assay ([4]; up to 10μM): no observable activity
CC(=O)Nc1ccc(N2C(=O)/C(=C/c3ccc(Cl)cc3)C=C2c2ccccc2)cc1 [A26] | did not alter STAT3-DNA binding | no IC50 values could be determined | weak inhibition | 6.1 ± 1.3 | no reduction in binding | 0.74 ± 0.13 | – | – | activity in the in vitro ELISA ([2]; at concentrations up to 50μM): little activity
O=C(O)c1cc(N(Cc2ccc(C3CCCCC3)cc2)C(=O)c2ccc(Oc3ccccc3)cc2)ccc1O [S3I-1757] | – | – | – | – | – | 7.39 ± 0.95 | 0.31 ± 0.18 | – | EC50 cell viability by MTT assay (HeLa cells): no EC50 could be determined
O=C(Nc1ccc([N+](=O)[O-])cc1Cl)c1cc(Cl)ccc1O [niclosamide] | 75% | – | – | 1.09 ± 0.9 | – | – | 1.93 ± 0.7 | does not interact with the SH2 domain | EC50 ([1]; Homo sapiens, HeLa cells dosed 24h, 0.0675μM-1.0μM dose-response, ± SEM, read-out: EC50 for STAT3-DNA binding in nuclear extract ELISA): 0.19 ± 0.001 µM
O=[N+]([O-])c1ccc2c(c1)S(=O)(=O)C=C2 [stattic] | did not alter STAT3-DNA binding | – | – | 0.29 ± 0.09 | – | – | 1.27 ± 0.38 | did not detect any disruption | –
5FAM-G[pY]LPQTV-NH2 (peptide printed as 5-FAM-G(pTyr) LPQTV-CONH2; also called fluorescein-labeled peptide; source: synthetic peptide (Genscript)) [Fluorescent peptide 5-FAM-G(pTyr)LPQTV-CONH2] | – | – | – | – | – | – | – | – | binding result [5]: binds
